In patent US9988381B2, “Five-member-heterocycle fused pyridine compounds, method of producing the same, and use thereof” (SHANGHAI INSTITUTE OF MATERIA MEDICA, CHINESE ACADEMY OF …, priority 2013, dated 2018):
Where two headings read alike, the source gives them in different places.

Columns and labels:
[1] = molecular target: T1, c-Met kinase domain recombinant protein (Homo sapiens, UniProt P08581); assay: biochemical; settings: for inhibition at 0.1 µM: read-out: Average inhibition rate at 0.1 μM (%); for inhibition at 1 µM: read-out: Average inhibition rate at 1 μM (%); for inhibition at 10 µM: read-out: Average inhibition rate at 10 μM (%)
T1 construct: 50 μL diluted solution of c-Met kinase domain recombinant protein in reaction buffer was added to initiate the reaction
Summary of the method: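 IC50 came from a four-parameter fit of inhibition rates measured by anti-phosphotyrosine (PY99/HRP) ELISA at 490 nm. The reaction ran 1 hour at 37° C with 5 μM ATP, c-Met kinase domain protein and Poly(Glu,Tyr)4:1-coated wells, in HEPES pH 7.4 buffer containing MgCl2, MnCl2, Na3VO4 and DTT.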

[2] = system: BaF3/TPR-Met cell; assay: Test III: growth inhibition of engineered BaF3/TPR-Met cells (MTT); format: cell-based; settings: for inhibition at 0.2 µM / inhibition at 1 µM: Mus musculus; for inhibition at 0.2 µM: read-out: Cell proliferation inhibition rate at 200 nM (%); for inhibition at 1 µM: read-out: Cell proliferation inhibition rate at 1 μM (%)
Procedure: Assays on the growth inhibition of the compounds against engineered BaF3/TPR-Met cell (engineered cell line having TPR-Met fusion protein stably expressed in cytoplasm, persistently activated, Met dependent sensitive cell line; BaF3 cell was purchased from DSMZ, German) were detected using microculture tetrozolium (MTT) staining. A certain amount of BaF3/TPR-Met cells at log phase were inoculated into 96-well culture plate at 90 µL per well, incubated overnight and then 10 μL compound at various concentrations or vehicle control (normal saline) was added, each concentration was tested in triplicate. After incubation with compound for 72 hours, the incubation was terminated, MTT solution (5 mg/mL) was added at 20 μL per well, incubated at 37° C. for 4 hours, then 100 μL triplet solution (10% SDS−5% isobutanol−0.01M HCl) was added, incubated overnight at 37° C., OD value was measured at 570 nm. […] Experiments were conducted in duplicates.

[3] = molecular target: T1, c-Met kinase domain recombinant protein; assay: biochemical; settings: for inhibition at 10 µM: read-out: Inhibition rate at 10 μM (%)
Summary of the method: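 Recombinant c-Met kinase domain phosphorylated immobilised Poly(Glu,Tyr)4:1 for 1 h at 37 °C in 50 mM HEPES pH 7.4, 50 mM MgCl2, 0.5 mM MnCl2, 0.2 mM Na3VO4, 1 mM DTT with ATP. Product measured by anti-phosphotyrosine PY99 ELISA (HRP, 490 nm), giving percent inhibition; ATP-free wells served as control.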

[4] = system: MKN45 cell; assay: Test III: growth inhibition of gastric tumor cell MKN45 (SRB); format: cell-based; settings: Homo sapiens, MKN-45, 72 h, read-out: Cell proliferation inhibition rate at 1 μM (%)
Procedure: (§1) Assays on the growth inhibition of the compounds against gastric tumor cell MKN45, non-small cell carcinoma EBC-1 cell (both are MET persistent activated cell lines due to MET gene amplification, and are Met dependent tumor cell lines, MKN45 cell was purchased from JCRB, Japan, EBC-1 cell was purchased from ATCC, USA) were detected using sulforhodamine B (SRB) staining. […] After incubation with compound for 72 hours, the incubation was terminated, adherent cells were retained and medium was discarded, 10% (w/v) trichloroacetic acid (100 μL pre well) was added, the cells were fixed at 4° C. for 1 hour, then rinsed with distilled water for 5 times, after dried at room temperature, SRB solution (4 mg/mL, dissolved in 1% glacial acetic acid) was added at 100 μL per well, incubated and stained at room temperature for 15 minutes, then rinsed with 1% glacial acetic acid for 5 times to remove any unbound SRB, dried at room temperature, then 10 mM Tris solution was added at 100 μL per well, the optical density (OD) value at 515 nm was measured using VERSMax microplate reader.
(§2) Experiments were conducted in duplicates. IC50 value was calculated by fitting the data for a four parameter fit using inhibition curve, the results are shown below in Table 2.

[5] = system: EBC-1 cell; assay: Test III: growth inhibition of non-small cell carcinoma EBC-1 cell (SRB); format: cell-based; settings: Homo sapiens, EBC-1, 72 h; for inhibition at 0.2 µM: read-out: Cell proliferation inhibition rate at 200 nM (%); for inhibition at 1 µM: read-out: Cell proliferation inhibition rate at 1 μM (%)
Procedure: as §1, §2

[6] = system: human lung cancer EBC-1 xenograft; assay: Test IV: human non-small cell lung cancer EBC-1 xenograft growth in nude mice; format: in vivo
Procedure: EBC-1 cells were implanted subcutaneously in the right axilla of nude mice at 5×10^6 cells per mouse, xenograft developed thereby was passaged in nude mice for 3 generations prior to use. Tumor tissue at rapid growth phase was taken, minced under sterile condition into pieces of about 1.5 mm^3, then implanted subcutaneously in the right axilla of nude mice.
Xenografted tumor diameters were measured twice per week, and body weights of the mice were measured at the same time. Tumor Volume (TV) was calculated by the following equation: TV=1/2×a×b^2, wherein a, b refers to the length and width, respectively. Based on the measurement, Relative Tumor Volume (RTV) was calculated by the following equation: RTV=Vt/V0, wherein V0 is the tumor volume measured when divided for administration (i.e., do), Vt is the tumor volume measured at each timepoint.

T1 sequence (P08581 1078-1345 limits assumed): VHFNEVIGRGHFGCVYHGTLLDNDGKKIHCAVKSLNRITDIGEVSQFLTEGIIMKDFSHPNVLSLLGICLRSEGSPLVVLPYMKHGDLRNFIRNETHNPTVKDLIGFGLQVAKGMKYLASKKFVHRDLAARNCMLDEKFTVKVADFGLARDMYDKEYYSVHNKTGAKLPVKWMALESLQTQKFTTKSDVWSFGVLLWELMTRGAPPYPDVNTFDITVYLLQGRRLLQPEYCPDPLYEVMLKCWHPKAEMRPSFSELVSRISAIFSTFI

Compound	IC50 [1]	inhibition at 0.1 µM [1]	inhibition at 1 µM [1]	inhibition at 10 µM [1]	inhibition at 10 µM [3]	inhibition at 0.2 µM ([2]; BaF3/TPR-Met, 200 nM, 72 hours)	inhibition at 1 µM ([2]; BaF3/TPR-Met, 1 μM, 72 hours)	further results
O=C(C1CC1)N1CCC(n2cc(-c3cnc4cnn(S(=O)(=O)c5cnc6ccccn56)c4c3)cn2)CC1 [Example 55, 1-(imidazo[1,2-a]pyridine-3-sulfonyl)-6-{{1-[(1-cyclopropylcarbonyl)-4-piperidinyl]}-4-pyrazolyl}-1-H-pyrazolo[4,3-b]pyridine]	1.3 ± 0.1 nM	58.8%	58.3%	60.8%	74.1%			inhibition at 0.2 µM ([2]; BaF3, 72 h): 89.3%; inhibition at 1 µM ([2]; BaF3, 72 h): 89.8%
O=C(C1CCCC1)N1CCC(n2cc(-c3cnc4cnn(S(=O)(=O)c5cnc6ccccn56)c4c3)cn2)CC1 [Example 56, 1-(imidazo[1,2-a]pyridine-3-sulfonyl)-6-{{1-[(1-cyclopentylcarbonyl)-4-piperidinyl]}-4-pyrazolyl}-1-H-pyrazolo[4,3-b]pyridine]		53.3%	56.3%	58.9%	62.1%	79.1%	90.6%	
O=C(C1CCCCC1)N1CCC(n2cc(-c3cnc4cnn(S(=O)(=O)c5cnc6ccccn56)c4c3)cn2)CC1 [Example 57, 1-(imidazo[1,2-a]pyridine-3-sulfonyl)-6-{{1-[(1-cyclohexylcarbonyl)-4-piperidinyl]}-4-pyrazolyl}-1-H-pyrazolo[4,3-b]pyridine]		52.4%	54.5%	60.3%	60.8%	86.8%	89.5%	
CC(C)N1CCC(n2cc(-c3cnc4cnn(S(=O)(=O)c5cnc6ccccn56)c4c3)cn2)CC1 [Example 59, 1-(imidazo[1,2-a]pyridine-3-sulfonyl)-6-{{1-[(1-isopropyl)-4-piperidinyl]}-4-pyrazolyl}-1-H-pyrazolo[4,3-b]pyridine]		51.6%	51.9%	59.8%	60.3%	70.6%	89.8%	
O=S(=O)(c1cnc2ccccn12)n1ncc2ncc(-c3cnn(C4CCN(C5CCCC5)CC4)c3)cc21 [Example 60, 1-(imidazo[1,2-a]pyridine-3-sulfonyl)-6-{{1-[(1-cyclopentyl)-4-piperidinyl]}-4-pyrazolyl}-1-H-pyrazolo[4,3-b]pyridine]		50.1%	53.4%	62.6%	57.4%	84.8%	89.4%	
CC(C)(C)OC(=O)N1CCC(n2cc(-c3cnc4cnn(S(=O)(=O)c5cnc6ccc(Cl)nn56)c4c3)cn2)CC1 [Example 61]		73.7%	76%	83.2%	59.8%	83.1%	91.7%	
CC(C)(C)OC(=O)N1CCC(n2cc(-c3cnc4cnn(S(=O)(=O)c5cnc6ccc(C(F)(F)F)cn56)c4c3)cn2)CC1 [Example 63]		59%	60.4%	63%	83.2%		66.5%	
Cl.O=S(=O)(c1cnc2ccccn12)n1ncc2ncc(-c3cnn(C4CCNCC4)c3)cc21 [Example 66, 1-(imidazo[1,2-a]pyridine-3-sulfonyl)-6-{[1-(4-piperidinyl)]-4-pyrazolyl}-1-H-pyrazolo[4,3-b]pyridine chloride]								Average inhibition rate at 0.1 μM (%) ([1]; compound 0.1 μM): 73.3%; Average inhibition rate at 1 μM (%) ([1]; compound 1 μM): 75.8%; Average inhibition rate at 10 μM (%) ([1]; compound 10 μM, Table 2): 79.9%; Cell proliferation inhibition rate at 1 μM (%) ([2]; BaF3/TPR-Met, 1 μM, 72 hours): 92.7%; Inhibition rate at 10 μM (%) ([3]; compound 10 μM, Table 1): 63%

Second part, led by results:

IC50 [1]	inhibition at 0.1 µM [1]	inhibition at 1 µM [1]	inhibition at 10 µM [1]	inhibition at 10 µM [3]	Compound	inhibition at 0.2 µM ([2]; BaF3/TPR-Met, 200 nM, 72 hours)	inhibition at 1 µM ([2]; BaF3/TPR-Met, 1 μM, 72 hours)	further results
	63.1%	64.6%	68.2%	66%	CC(C)(C)OC(=O)N1CCC(n2cc(-c3cnc4cnn(S(=O)(=O)c5cnc6ccc(Cl)cn56)c4c3)cn2)CC1 [Example 67]	90.3%	91.6%	
0.04 ± 0.04 nM	70.1%	80.3%	76.5%	80.9%	Cn1cc(-c2cnc3cnn(S(=O)(=O)c4cnc5ccc(-c6ccsc6)cn45)c3c2)cn1 [Example 72, 1-{[6-(3-thiophene)-imidazo[1,2-a]pyridine]-3-sulfonyl}-6-[(1-methyl)-4-pyrazolyl]-1-H-pyrazolo[4,3-b]pyridine]			inhibition at 1 µM [4]: 72.8%
0.5 ± 0.1 nM	89.4%	91.3%			CN1CCN(C(=O)c2ccc(-c3cnc4cnn(S(=O)(=O)c5cnc6ccc(-c7cnn(C)c7)cn56)c4c3)cc2)CC1 [Example 142, 1-{(6-[(1-methyl)-4-pyrazolyl]-imidazo[1,2-a]pyridine)-3-sulfonyl}-6-[4-(4-methylpiperazine-1-carbonyl)phenyl]-1-H-pyrazolo[4,3-b]pyridine]			inhibition at 0.2 µM [5]: 92.1%; inhibition at 1 µM [5]: 92.6%; TV (mm^3, mean ± SD) d21 ([6]; 50 mg/kg po qd/21): 259 ± 421 ^ mm^3; Weight (g) d21 ([6]; 50 mg/kg po qd/21): 21.0 g; GI (%) ([6]; 50 mg/kg po qd/21, d21): 90.65%; RTV (mean ± SD) ([6]; 50 mg/kg po qd/21, d21): 2.23 ± 3.89; T/C (%) ([6]; 50 mg/kg po qd/21, day 21): 16.91%; TV (mm^3, mean ± SD) d21 ([6]; 100 mg/kg po qd/21): 21 ± 34 mm^3; Weight (g) d21 ([6]; 100 mg/kg po qd/21): 20.9 g; GI (%) ([6]; 100 mg/kg po qd/21, d21): 106.70%; RTV (mean ± SD) ([6]; 100 mg/kg po qd/21, d21): 0.14 ± 0.21; T/C (%) ([6]; 100 mg/kg po qd/21, day 21): 1.05%
0.6 ± 0.1 nM	90.6%	87.1%			CC(C)N1CCC(n2cc(-c3cnc4cnn(S(=O)(=O)c5cnc6ccc(-c7cnn(C)c7)cn56)c4c3)cn2)CC1 [Example 145, 1-{(6-[(1-methyl)-4-pyrazolyl]-imidazo[1,2-a]pyridine)-3-sulfonyl}-6-{(1-[(1-isopropyl)-4-piperidinyl]}-4-pyrazolyl}-1-H-pyrazolo[4,3-b]pyridine]			inhibition at 0.2 µM [5]: 92.4%; inhibition at 1 µM [5]: 92.8%; TV (mm^3, mean ± SD) d21 ([6]; 50 mg/kg po qd/21): 36 ± 49 mm^3; Weight (g) d21 ([6]; 50 mg/kg po qd/21): 19.9 g; GI (%) ([6]; 50 mg/kg po qd/21, d21): 106.14%; RTV (mean ± SD) ([6]; 50 mg/kg po qd/21, d21): 0.31 ± 0.50; T/C (%) ([6]; 50 mg/kg po qd/21, day 21): 2.36%; TV (mm^3, mean ± SD) d21 ([6]; 100 mg/kg po qd/21): 8 ± 13 mm^3; Weight (g) d21 ([6]; 100 mg/kg po qd/21): 19.1 g; GI (%) ([6]; 100 mg/kg po qd/21, d21): 107.77%; RTV (mean ± SD) ([6]; 100 mg/kg po qd/21, d21): 0.05 ± 0.09; T/C (%) ([6]; 100 mg/kg po qd/21, day 21): 0.40%
